Assay results published in paper PMC11892739, “Site-specific molecular glues for the 14-3-3/Tau pS214 protein–protein interaction via reversible covalent imine tethering” (RSC Medicinal Chemistry, 2025).

Key:
14-3-3/Pin1 complex = system: 14-3-3/Pin1 complex; set-up: method as in PMID 34047554; conditions: 100 μM compound; cited from earlier work
14-3-3ζ/p65 peptide = target: T1, 14-3-3ζ/p65 peptide (Homo sapiens, UniProt P63104); assay: FA peptide screen, 14-3-3ζ titration to client peptide and compound: p65; format: binding; conditions: 250 μM compound, 100 nM peptide; +1 Ile
T1 construct: made in house; host or cells: NiCo21 (DE3) E. coli
Procedure: (§1) Since the hub protein 14-3-3 binds to hundreds of phosphoprotein partners, selectivity of PPI stabilization is a major challenge. The interplay of chemical reactivity, and the topology and functionality of the composite binding pocket shaped by 14-3-3 and Tau potentially provide entries towards selective stabilization. […] Here, 14-3-3ζ was titrated to a constant concentration of client peptide (100 nM) and compound (250 μM) to determine the SF250μM values for the particular 14-3-3 PPI. A variety of 14-3-3 binding proteins was represented in this client panel whereby the size and hydrophobicity of the +1 amino acid were varied. […]
(§2) chromatography (HisTrap high performance cartridges, Cytiva). […] Dialyzed protein was concentrated to ∼40 mg/mL, analyzed by Q -Tof LC/MS, and aliquots were flash -frozen for storage at −80 °C. […]
(§3) 0.1% (v/v) Tween20, 0.1% (w/v) BSA). […] Measurements were performed directly after plate preparation, using a Tecan SPARK plate reader at room temperature ( λex: 485±20 nm; λem: 535±25 nm; mirror: automatic; flashes: 30; settle time: 1 ms; gain: optimal; Z -position: calculated from well). […] All data were analyzed using GraphPad Prism (10.0.1) and fitted with a four -parameter logistic model (4PL) to determine binding affinities (dissociation constant, KD). […]
(§4) Fluorescence Anisotropy – peptide screen […]

14-3-3ζ/SOS1 peptide = target: T2, 14-3-3ζ/SOS1 peptide (Homo sapiens, UniProt P63104); assay: FA peptide screen, 14-3-3ζ titration to client peptide and compound: SOS1; format: binding; conditions: 250 μM compound, 100 nM peptide; +1 Ala
T2 construct: made in house; host or cells: NiCo21 (DE3) E. coli
Procedure: as §1, §2, §3, §4

14-3-3ζ/ERRγ peptide = target: T3, 14-3-3ζ/ERRγ peptide (Homo sapiens, UniProt P63104); assay: FA peptide screen, 14-3-3ζ titration to client peptide and compound: ERRγ; format: binding; conditions: 250 μM compound, 100 nM peptide; +1 Cys
T3 construct: made in house; host or cells: NiCo21 (DE3) E. coli
Procedure: as §1, §2, §3, §4

T1 sequence (P63104 whole entry, other chains not shown): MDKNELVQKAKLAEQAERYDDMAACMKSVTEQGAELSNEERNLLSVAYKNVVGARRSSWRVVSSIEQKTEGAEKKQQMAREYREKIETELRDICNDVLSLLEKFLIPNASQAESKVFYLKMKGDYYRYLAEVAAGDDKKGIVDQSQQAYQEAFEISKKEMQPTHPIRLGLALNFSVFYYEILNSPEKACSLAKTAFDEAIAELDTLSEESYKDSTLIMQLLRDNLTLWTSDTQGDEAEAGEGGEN
T2 sequence (P63104 whole entry, other chains not shown): as above
T3 sequence (P63104 whole entry, other chains not shown): as above

O=Cc1ccc(-n2ccnc2-c2ccccc2)cc1Br [Compound 1]
SF100μM for stabilization of the 14-3-3/Pin1 complex (14-3-3/Pin1 complex): 10

CCc1ccc(-c2nccn2-c2ccc(C=O)c(Br)c2)cc1 [Compound 18]
stabilization of 14-3-3/p65 peptide (in words) (14-3-3ζ/p65 peptide): minor off-target effects | stabilization of 14-3-3/SOS1 peptide (in words) (14-3-3ζ/SOS1 peptide): minor off-target effects | stabilization of 14-3-3/ERRγ peptide (in words) (14-3-3ζ/ERRγ peptide): did not show significant stabilizing activity
